Values after ≈ are worked out from the molar mass of the structure shown. Values joined by “and” are separate entries in the source; they are usually repeats but may differ in a detail not shown here. Equal entries are not always repeated. Where two headings read alike, the source gives them in different places.
Columns and labels:
[1] = test system: CL1-5 human lung adenocarcinoma cells; test: In vitro cytotoxicity (3H-thymidine incorporation), CL1-5; assay type: cell-based
Procedure: CL1-5 cells were exposed to the indicated concentrations of drugs with or without the addition of human serum albumin to 40 mg/ml. […] Bars show the SD.
(§1) The cancer cell lines were from ATCC except for CL1-5 human lung adenocarcinoma which was generous gift from Dr. PC Yang and EJ human bladder carcinoma cells. See Yang, P. C. et al., Characterization of the mucin differentiation in human lung adenocarcinoma cell lines. American journal of respiratory cell and molecular biology 1992, 7, 161-171; Marshall, C. J. et al., Markers of neoplastic transformation in epithelial cell lines derived from human carcinomas. J Natl Cancer Inst 1977, 58, 1743-51.
(§2) 5000-10000 cells/well in 96 well plate were exposed to graded concentration of the compounds for 48 h in the absence or presence of 40 mg/ml HSA. E. coli β-glucuronidase (1 μg/well) was added with BCC-G in some experiments. The cells were washed twice with PBS and incubated in fresh medium for 24 h before the cells were pulsed with 1 μC/well of ^3H-thimidine for 16 h. Cellular radioactivity in harvested cells was counted on a Topcount scintillation counter and IC50 values were calculated by fitting the data to a sigmoidal dose/response equation.

E. coli β-glucuronidase = E. coli β-glucuronidase (Escherichia coli, UniProt P05804); details: for Kcat / Km: enzymatic hydrolysis by E. coli β-glucuronidase
CaSki = test: In vitro cytotoxicity (3H-thymidine incorporation), CaSki; assay type: cell-based
Procedure: as §2

[2] = Stability in blood (human plasma/serum, 37° C., 24 h); assay type: in vitro ADME; details: 24 h at 37° C.
Procedure: Normal human plasma was spiked with BQC-G to 5 μM. The mixture was incubated 24 h at 37° C. during which time samples were periodically removed and analyzed by SPE-HPLC.

human β-glucuronidase = biological target: T1, human β-glucuronidase (Homo sapiens, UniProt P08236); test: Hydrolysis of BQC-G by human β-glucuronidase; assay type: biochemical; details: low concentrations of human β-glucuronidase
T1 sequence (P08236 23-651): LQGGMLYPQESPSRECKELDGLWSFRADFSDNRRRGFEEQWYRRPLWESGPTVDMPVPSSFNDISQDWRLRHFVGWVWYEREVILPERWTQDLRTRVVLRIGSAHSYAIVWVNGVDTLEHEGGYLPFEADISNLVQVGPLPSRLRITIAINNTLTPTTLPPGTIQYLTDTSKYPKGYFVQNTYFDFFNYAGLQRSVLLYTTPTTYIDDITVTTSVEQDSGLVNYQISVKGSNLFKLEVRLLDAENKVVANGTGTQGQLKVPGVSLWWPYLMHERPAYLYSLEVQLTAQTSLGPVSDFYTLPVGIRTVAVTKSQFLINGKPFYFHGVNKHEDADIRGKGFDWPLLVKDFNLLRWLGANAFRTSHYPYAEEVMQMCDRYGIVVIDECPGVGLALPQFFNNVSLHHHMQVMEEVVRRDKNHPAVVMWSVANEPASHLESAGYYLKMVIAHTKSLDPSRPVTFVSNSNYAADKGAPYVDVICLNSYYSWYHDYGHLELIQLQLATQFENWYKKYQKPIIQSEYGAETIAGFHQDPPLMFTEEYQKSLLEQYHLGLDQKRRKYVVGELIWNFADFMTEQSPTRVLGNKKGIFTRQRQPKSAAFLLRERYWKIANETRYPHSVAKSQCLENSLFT
Description: Hydrolysis of BQC-G by β-glucuronidase

[3] = test system: EJ human bladder carcinoma cells; test: In vitro cytotoxicity (3H-thymidine incorporation), EJ; assay type: cell-based
Description: as §1, §2

[4] = Octanol/water partition coefficient; assay type: physicochemical; details: for Po/w (octanol/water partition coefficient): Buffer pH 4.5
Procedure: Octanol/Water Partition Coefficient
[…] One μg of either BQC or BQC-G was added to a mixture of 250 μl octanol and 250 μl of one of the three water based pre-equilibrated solvents. After mixing for 24 h at RT, the samples were centrifuged 20 min at 10,000×g. Samples of the octanol and water layers were analyzed by HPLC.

LS174T = test: In vitro cytotoxicity (3H-thymidine incorporation), LS174T; assay type: cell-based
Procedure: as §2

Water solubility = assay type: physicochemical
Procedure: […] Mixtures were centrifuged for 40 min at 20,000 g at room temperature. A sample from the water layer was analyzed by HPLC and quantified using standard curves generated with pure BQC and BQC-G.

other cancer cell lines = test: In vitro cytotoxicity, other cancer cell lines; assay type: cell-based
Procedure: as §2

[5] = Homo sapiens, CL1-5, CL1-5, +HSA (40 mg/ml)
[6] = Homo sapiens, CL1-5, CL1-5, −HSA

Chain of E. coli β-glucuronidase (P05804 whole entry): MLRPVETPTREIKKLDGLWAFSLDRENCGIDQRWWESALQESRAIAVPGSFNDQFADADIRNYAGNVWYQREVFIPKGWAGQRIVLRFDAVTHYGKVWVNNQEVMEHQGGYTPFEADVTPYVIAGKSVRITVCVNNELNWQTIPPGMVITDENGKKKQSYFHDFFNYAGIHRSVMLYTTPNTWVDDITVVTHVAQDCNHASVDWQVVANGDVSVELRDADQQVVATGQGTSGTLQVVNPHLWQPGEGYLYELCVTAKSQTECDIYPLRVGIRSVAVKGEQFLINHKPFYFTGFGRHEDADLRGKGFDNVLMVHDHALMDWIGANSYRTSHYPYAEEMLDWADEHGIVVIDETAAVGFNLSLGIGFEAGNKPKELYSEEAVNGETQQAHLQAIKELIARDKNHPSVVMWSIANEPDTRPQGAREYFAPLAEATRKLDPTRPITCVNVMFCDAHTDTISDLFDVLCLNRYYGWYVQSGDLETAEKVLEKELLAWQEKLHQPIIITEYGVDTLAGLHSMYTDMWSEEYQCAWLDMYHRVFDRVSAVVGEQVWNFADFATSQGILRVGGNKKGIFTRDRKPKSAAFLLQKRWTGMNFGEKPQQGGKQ

Q: Which results are given for `CC[C@@]1(O)C(=O)OCc2c1cc1n(c2=O)Cc2cc3c(NC(=O)OCc4ccc(O[C@@H]5O[C@H](C(=O)O)[C@@H](O)[C@H](O)[C@H]5O)cc4)cccc3nc2-1` [9ACG, 9-amino-camptothecin-glucuronide]?
A: Cytotoxicity Ratio (IC50 in the presence of HSA to IC50 without HSA) [1]: >15; IC50 ([1]; CL1-5, +HSA (40 mg/ml)): > 10000 nM; IC50 ([1]; CL1-5, −HSA): 650 ± 40 nM; Kcat (E. coli β-glucuronidase): 8.6 s⁻¹; Km (E. coli β-glucuronidase): 30 µM

Q: Which results are given for `CC[C@@]1(O)C(=O)OCc2c1cc1n(c2=O)Cc2c-1nc1ccc(OCc3ccc(O[C@@H]4O[C@H](C(=O)O)[C@@H](O)[C@H](O)[C@H]4O)c([N+](=O)[O-])c3)c3c1c2CCC3` [BQC-G]?
A: IC50 (CaSki): 31.2 ± 0.5 nM; stability in human serum [2]: only trace amounts of BQC detected; hydrolysis to the parental aglycone BQC (human β-glucuronidase): completely hydrolyzed; Cytotoxicity Ratio (IC50 in the presence of HSA to IC50 without HSA) ([1]; CL1-5): 18.4; IC50 ([1]; CL1-5, +HSA (40 mg/ml)): 1080 nM; IC50 ([1]; CL1-5, in the presence of HSA, hydrolyzed by β-glucuronidase): 13 nM; IC50 ([1]; CL1-5, without HSA, β-glucuronidase added): 1.3 nM; IC50 ([1]; CL1-5, −HSA): 58 nM and 58.7 nM; IC50 [3]: 44.8 ± 0.7 nM; Po/w (octanol/water partition coefficient) [4]: −0.44; Po/w ([4]; Buffer pH 7.4): −1.01; octanol/water partition coefficient ([4]; pH not stated (discussion)): about −1; Po/w ([4]; water): −0.44; IC50 (LS174T): 24.6 ± 2.8 nM; Kcat (E. coli β-glucuronidase): 45.1 s⁻¹; Km (E. coli β-glucuronidase): 4.6 µM; hydrolysis to the parental aglycone BQC (E. coli β-glucuronidase; low concentrations of E. coli β-glucuronidase): completely hydrolyzed; Solubility (Water solubility; Buffer pH 7.0): 775 µg/mL (≈ 1060 µM); solubility in water based buffers (Water solubility; pH 7.0): 775 µg/mL (≈ 1060 µM); solubility in water based buffers relative to BQC (Water solubility; versus BQC): about 4000 fold

Q: With `O=C(O)[C@H]1O[C@@H](Oc2ccc([N+](=O)[O-])cc2)[C@H](O)[C@@H](O)[C@@H]1O` [PNPG, p-nitrophenol β-D-glucuronide] as the molecule, how does the Kcat (E. coli β-glucuronidase) read?
A: 173 s⁻¹

Q: And the Km (E. coli β-glucuronidase)?
A: 490 ± 84 µM

Q: With `Cc1cc(=O)oc2cc(O[C@@H]3O[C@H](C(=O)O)[C@@H](O)[C@H](O)[C@H]3O)ccc12` [4-MUG, 4-methylumbelliferyl-β-D-glucuronide] as the molecule, how does the Kcat (E. coli β-glucuronidase) read?
A: 22.2 s⁻¹

Q: And the Km (E. coli β-glucuronidase)?
A: 80.2 ± 12.4 µM

Q: With `CC[C@@]1(O)C(=O)OCc2c1cc1n(c2=O)Cc2cc3ccccc3nc2-1` [CPT, camptothecin] as the molecule, how does the IC50 (CaSki; Homo sapiens, Ca-Ski) read?
A: 20 ± 2.1 nM

Q: And the “Cytotoxicity Ratio (IC50 in the presence of HSA to IC50 without HSA)” value ([1]; CL1-5)?
A: >146

Q: And the “effect of HSA on cytotoxicity” value ([1]; CL1-5, in the presence of HSA)?
A: drastically reduced

Q: What about the IC50 [1, 5] of the same molecule?
A: > 3000 nM

Q: And the IC50 [1, 6]?
A: 20.5 ± 1.3 nM

Q: And the IC50 ([3]; Homo sapiens)?
A: 21 ± 3.9 nM

Q: What about the IC50 (LS174T; Homo sapiens) of the same molecule?
A: 9.7 ± 0.8 nM

Q: With `CC[C@@]1(O)C(=O)OCc2c1cc1n(c2=O)Cc2c-1nc1ccc(O)c3c1c2CCC3` [BQC, 5,6-dihydro-4H-benzo[de]quinoline-camptothecin] as the molecule, how does the IC50 (CaSki) read?
A: 1.25 ± 0.05 nM

Q: And the “Cytotoxicity Ratio (IC50 in the presence of HSA to IC50 without HSA)” value ([1]; CL1-5)?
A: 9.5

Q: And the IC50 ([1]; CL1-5, +HSA (40 mg/ml))?
A: 13 nM

Q: And the IC50 ([1]; CL1-5, −HSA)?
A: 1.4 nM and 1.37 nM

Q: What about the IC50 [3] of the same molecule?
A: 1.78 ± 0.08 nM

Q: And the IC50 (other cancer cell lines)?
A: 1 to 2 nM

Q: What about the “Po/w (octanol/water partition coefficient)” value [4] of the same molecule?
A: 1.67

Q: What about the Po/w ([4]; Buffer pH 7.4) of the same molecule?
A: 1.46

Q: And the Po/w ([4]; water)?
A: 1.98

Q: What about the IC50 (LS174T) of the same molecule?
A: 1.31 ± 0.03 nM

Q: What about the Solubility (Water solubility; Buffer pH 4.5) of the same molecule?
A: 0.120 µg/mL (≈ 0.297 µM)

Q: What about the Solubility (Water solubility; Buffer pH 7.0) of the same molecule?
A: 0.200 µg/mL (≈ 0.495 µM)

Q: What about the “solubility in water-based buffers” value (Water solubility; pH 4.5) of the same molecule?
A: 0.125 µg/mL (≈ 0.309 µM)

Q: And the “solubility in water-based buffers” value (Water solubility; pH 7.0)?
A: 0.2 µg/mL (≈ 0.495 µM)

Q: What about the Solubility (Water solubility; water) of the same molecule?
A: 0.200 µg/mL (≈ 0.495 µM)

Q: What does the source list for `CC[C@@]1(O)C(=O)OCc2c1cc1n(c2=O)Cc2cc3c(CN(C)C)c(O)ccc3nc2-1` [topotecan]?
A: IC50 [1, 5]: 28.4 ± 0.7 nM; IC50 [1, 6]: 27.8 ± 0.3 nM

Q: With `CCc1c2c(nc3ccc(O)cc13)-c1cc3c(c(=O)n1C2)COC(=O)[C@]3(O)CC` [SN-38] as the molecule, how does the “Cytotoxicity Ratio (IC50 in the presence of HSA to IC50 without HSA)” value [1] read?
A: 9.1

Q: What about the IC50 ([1]; CL1-5, +HSA (40 mg/ml)) of the same molecule?
A: 47.9 ± 1.9 nM

Q: What about the IC50 ([1]; CL1-5, −HSA) of the same molecule?
A: 5.25 ± 0.08 nM

Q: What does the source list for `CC[C@@]1(O)C(=O)OCc2c1cc1n(c2=O)Cc2cc3c(N)cccc3nc2-1` [9AC, 9-amino-camptothecin]?
A: Cytotoxicity Ratio (IC50 in the presence of HSA to IC50 without HSA) [1]: 140; effect of HSA on cytotoxicity [1]: profound decrease in cytotoxicity; IC50 ([1]; CL1-5, +HSA (40 mg/ml)): 1370 ± 70 nM; IC50 ([1]; CL1-5, −HSA): 9.8 ± 0.3 nM

From patent US9353140B2, “BQC-G, a tumor-selective anti-cancer prodrug” (priority 2009, dated 2016)
